Among the test systems are 786-0; A498; DU-145; HT-29; Hs-578T; IGROV-1; KM12; OVCAR-3; OVCAR-5; RPMI-8226; SF-539; SK-MEL-2; SK-MEL-5; SN12C; T47D; TK-10; U-251; UACC-257; UACC-62; UO-31.
Assay in all cases: DTP human tumour cell line panel, 48 h

The results in this text go back to ChEMBL document CHEMBL1201862, “PubChem BioAssay data set” (2004).

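Following 48 hours of exposure in 96-well plates, responses at five concentrations were used to interpolate endpoints linearly. GI50 = concentration required for 50% inhibition of growth.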 Active and inactive are the calls of the source. Rule as the data show it: active = GI50 up to about 1.1 µM and inactive = higher.

For the molecule `CN1CCN(C)C12C=c1ccccc1=CC21CC1`, the GI50 with 786-0 is 54 µM (inactive); in the experiment with A498, > 100 µM (inactive); with DU-145, > 100 µM (inactive); in the experiment with HT-29, 17.2 µM (inactive); in the experiment on Hs-578T it was 21.9 µM (inactive); in the experiment with IGROV-1, 68.7 µM (inactive). The GI50 in the experiment with KM12 was 29 µM (inactive); with OVCAR-3, 62.1 µM (inactive); in the experiment on OVCAR-5 it was > 100 µM (inactive); in the experiment on RPMI-8226, 30 µM (inactive); in the experiment with SF-539, 37.9 µM (inactive); in the experiment on SK-MEL-2 it was 24.3 µM (inactive). The GI50 with SK-MEL-5 was 23.2 µM (inactive); with SN12C, 81.1 µM (inactive); with T47D, 45.1 µM (inactive); in the experiment with TK-10, 66.7 µM (inactive); in the experiment with U-251, 37.8 µM (inactive); in the experiment with UACC-257, 23.7 µM (inactive). Besides, the GI50 with UACC-62 was 18.6 µM (inactive); with UO-31, 40.9 µM (inactive).

Take `CCc1nnc(S)n1/N=C\c1ccc(-c2ccccc2[N+](=O)[O-])o1`: the GI50 was 45.6 µM (inactive) in the experiment on 786-0; 49.4 µM (inactive) in the experiment on A498; 53.5 µM (inactive) in the experiment on DU-145; 35.7 µM (inactive) in the experiment with HT-29; 37.4 µM (inactive) in the experiment with Hs-578T; 31.7 µM (inactive) in the experiment on IGROV-1. Moreover, the GI50 is 31.8 µM (inactive) with KM12; 18.2 µM (inactive) in the experiment on OVCAR-3; 50.7 µM (inactive) in the experiment with OVCAR-5; 13.2 µM (inactive) in the experiment on RPMI-8226; 29.8 µM (inactive) with SF-539; 29.4 µM (inactive) with SK-MEL-2. Also, the GI50 was 12 µM (inactive) in the experiment on SK-MEL-5; 47.3 µM (inactive) in the experiment with SN12C; 43.9 µM (inactive) in the experiment with T47D; > 100 µM (inactive) in the experiment on TK-10; 38.5 µM (inactive) in the experiment on U-251; 76.4 µM (inactive) with UACC-257. Moreover, the GI50 in the experiment with UACC-62 is 37.6 µM (inactive); in the experiment on UO-31, 41.5 µM (inactive).

`O=C1Nc2ccccc2/C1=c1\[nH]c(=O)/c(=C\c2ccc(OCc3ccccc3)cn2)[nH]c1=O`: the GI50 in the experiment with 786-0 is 18.8 µM (inactive); in the experiment with A498 it was 27.3 µM (inactive); with DU-145, 86.5 µM (inactive); in the experiment with HT-29, > 100 µM (inactive); in the experiment on Hs-578T it was 21.4 µM (inactive); in the experiment with IGROV-1, 47.3 µM (inactive). Besides, the GI50 was > 100 µM (inactive) with KM12; > 100 µM (inactive) with OVCAR-3; > 100 µM (inactive) with OVCAR-5; > 100 µM (inactive) in the experiment on RPMI-8226; 18.2 µM (inactive) in the experiment with SF-539; 38.2 µM (inactive) with SK-MEL-2. Also, the GI50 in the experiment on SK-MEL-5 is 64.6 µM (inactive); in the experiment on SN12C it was > 100 µM (inactive); in the experiment on T47D it was > 100 µM (inactive); in the experiment with TK-10, 22.4 µM (inactive); in the experiment with U-251 it was 17.9 µM (inactive); in the experiment on UACC-257, > 100 µM (inactive). Also, the GI50 in the experiment on UACC-62 is 67 µM (inactive); with UO-31, < 0.01 µM (active).

In the case of `COn1cc(C=O)c2ccccc21`, the GI50 in the experiment on 786-0 was > 67 µM (inactive); in the experiment with A498 it was 1.95 µM (inactive); in the experiment on DU-145, > 82 µM (inactive); in the experiment with HT-29, > 56.6 µM (inactive); in the experiment on Hs-578T, 37.4 µM (inactive); in the experiment with IGROV-1, > 62.8 µM (inactive). The GI50 was 23.9 µM (inactive) in the experiment on KM12; 36.6 µM (inactive) in the experiment with OVCAR-3; > 74.6 µM (inactive) in the experiment on OVCAR-5; > 68.1 µM (inactive) in the experiment with RPMI-8226; > 45.6 µM (inactive) in the experiment on SF-539; > 91.8 µM (inactive) in the experiment on SK-MEL-2. Moreover, the GI50 was 28.1 µM (inactive) in the experiment with SK-MEL-5; > 80.4 µM (inactive) with SN12C; 65.8 µM (inactive) in the experiment with T47D; > 54.3 µM (inactive) in the experiment on TK-10; 55.6 µM (inactive) in the experiment on U-251; > 78.9 µM (inactive) in the experiment with UACC-257. In addition, the GI50 is 41 µM (inactive) with UACC-62 and 61.2 µM (inactive) with UO-31.

`COc1ccc(CNc2nc3ccccc3nc2C(=O)O)cc1`: the GI50 with 786-0 is 57.8 µM (inactive); in the experiment with A498 it was > 100 µM (inactive); in the experiment on DU-145, 66.4 µM (inactive); in the experiment with HT-29, > 100 µM (inactive); in the experiment with Hs-578T, > 100 µM (inactive); in the experiment on IGROV-1, > 100 µM (inactive). Further, the GI50 with KM12 was 65.6 µM (inactive); in the experiment on OVCAR-3, > 100 µM (inactive); in the experiment with OVCAR-5 it was > 100 µM (inactive); with RPMI-8226, 21.7 µM (inactive); in the experiment with SF-539 it was > 100 µM (inactive); in the experiment on SK-MEL-2, > 100 µM (inactive). Moreover, the GI50 with SK-MEL-5 is 52.6 µM (inactive); in the experiment with SN12C it was > 100 µM (inactive); in the experiment with T47D, 65.3 µM (inactive); in the experiment with TK-10, > 100 µM (inactive); with U-251, 58.6 µM (inactive); with UACC-257, > 100 µM (inactive). In addition, the GI50 in the experiment with UACC-62 is > 100 µM (inactive); in the experiment with UO-31 it was 39 µM (inactive).

In the case of `CC(=O)Oc1ccc2c3c1O[C@H]1[C@H](O)CC[C@@]4(O)[C@@H](C2)N(C)CC[C@]314`, the GI50 in the experiment on 786-0, in the experiment with A498, with DU-145, in the experiment with HT-29, with Hs-578T and in the experiment with IGROV-1 was > 100 µM (inactive) each time. Further, the GI50 in the experiment with KM12, in the experiment on OVCAR-3, in the experiment with OVCAR-5, in the experiment on RPMI-8226, in the experiment with SF-539 and with SK-MEL-2 was > 100 µM (inactive) throughout. Further, the GI50 with SK-MEL-5, in the experiment on SN12C, in the experiment with T47D, with TK-10, with U-251 and in the experiment on UACC-257 was > 100 µM (inactive) in each case. For the same molecule, the GI50 in the experiment with UACC-62 and in the experiment on UO-31 was > 100 µM (inactive) throughout.

With `CN(Cc1cnc2nc(N)nc(N)c2n1)c1ccc(C(=O)NC(CO)CCCO)cc1` (stereo not given), the GI50 in the experiment on 786-0, with A498, in the experiment on DU-145, in the experiment with HT-29, in the experiment on Hs-578T and with IGROV-1 was > 100 µM (inactive) in each case. The GI50 in the experiment with KM12, with OVCAR-3, in the experiment on OVCAR-5, with RPMI-8226, in the experiment with SF-539 and with SK-MEL-2 was > 100 µM (inactive) throughout. The GI50 in the experiment with SK-MEL-5, in the experiment with SN12C, in the experiment with T47D, in the experiment on TK-10, in the experiment with U-251 and in the experiment with UACC-257 was > 100 µM (inactive) in each case. The GI50 in the experiment on UACC-62 and in the experiment with UO-31 was > 100 µM (inactive) each time.

As for `CN(C)/C=N/S(=O)(=O)c1nn2c(C=O)c(-c3ccc(-c4ccc([N+](=O)[O-])cc4)o3)nc2s1`, the GI50 is 1.07 µM (active) in the experiment with 786-0; 15.3 µM (inactive) with A498; 3.64 µM (inactive) with DU-145; 0.611 µM (active) with HT-29; 3.88 µM (inactive) in the experiment with Hs-578T; 1.72 µM (inactive) with IGROV-1. Further, the GI50 in the experiment with KM12 is 5.64 µM (inactive); with OVCAR-3, 2.07 µM (inactive); in the experiment on OVCAR-5, 4.04 µM (inactive); in the experiment with RPMI-8226 it was 0.931 µM (active); in the experiment with SF-539 it was 2.15 µM (inactive); in the experiment with SK-MEL-2, 7.28 µM (inactive). The GI50 was 4.76 µM (inactive) in the experiment with SK-MEL-5; 1.71 µM (inactive) in the experiment with SN12C; 5.52 µM (inactive) in the experiment with T47D; 3.39 µM (inactive) in the experiment with TK-10; 2.25 µM (inactive) in the experiment on U-251; 7.41 µM (inactive) in the experiment on UACC-257. In addition, the GI50 with UACC-62 is 3.68 µM (inactive); in the experiment on UO-31 it was 1.91 µM (inactive).

As for `CC1(C)C(=O)/C(=C/c2ccccc2)C(C)(C)C1(C)C`, the GI50 was > 81.8 µM (inactive) with 786-0; 36.1 µM (inactive) with A498; 40.7 µM (inactive) with DU-145; 40.1 µM (inactive) in the experiment with HT-29; 40.6 µM (inactive) with Hs-578T; 60.1 µM (inactive) in the experiment on IGROV-1. Also, the GI50 in the experiment on KM12 was 49.9 µM (inactive); in the experiment on OVCAR-3, > 39.3 µM (inactive); in the experiment on OVCAR-5, > 100 µM (inactive); with RPMI-8226, 31.4 µM (inactive); in the experiment on SF-539, > 100 µM (inactive); in the experiment with SK-MEL-2, > 43.5 µM (inactive). The GI50 in the experiment on SK-MEL-5 is 55 µM (inactive); with SN12C, 50.8 µM (inactive); in the experiment with T47D, > 65.3 µM (inactive); with TK-10, 46.6 µM (inactive); with U-251, 55.5 µM (inactive); in the experiment with UACC-257, > 100 µM (inactive). The GI50 is 54.1 µM (inactive) in the experiment on UACC-62 and 52.6 µM (inactive) in the experiment on UO-31.

Turning to `O=C(NCCCCCN1CCC2(CCCCC2)CC1)C(C1CCCCC1)C1CCCCC1`, the GI50 with 786-0 was 5.08 µM (inactive); in the experiment on A498, 4.26 µM (inactive); in the experiment with DU-145, 4.6 µM (inactive); in the experiment with HT-29, 1.97 µM (inactive); in the experiment on Hs-578T, 3.05 µM (inactive); with IGROV-1, 4.24 µM (inactive). Further, the GI50 with KM12 is 6.11 µM (inactive); with OVCAR-3 it was 4.17 µM (inactive); with OVCAR-5, 6.22 µM (inactive); in the experiment on RPMI-8226, 2.19 µM (inactive); with SF-539, 1.91 µM (inactive); in the experiment on SK-MEL-2 it was 2.21 µM (inactive). The GI50 was 1.61 µM (inactive) in the experiment with SK-MEL-5; 3.55 µM (inactive) with SN12C; 2.51 µM (inactive) in the experiment on T47D; 4.71 µM (inactive) in the experiment with TK-10; 4.34 µM (inactive) with U-251; 1.82 µM (inactive) in the experiment on UACC-257. The GI50 in the experiment on UACC-62 was 2.48 µM (inactive); in the experiment on UO-31 it was 3.61 µM (inactive).

Usually GI50 stands for the concentration at which growth is held to half of that of the control.
